Test results: the supplement of paper PMC3937590

Columns and labels:
Test in all cases: -log10 GI50 (growth inhibition 50%) (-log10(M)); higher = more potent growth inhibition
184A1 = system: 184A1
Summary of the method: (§1)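 A value carrying a < qualifier equals the top dose tested. Each compound was tested in triplicate on breast cancer cell lines for 72 hours at nine doses in 1:5 serial dilution, using a luminescence read-out against a time-zero plate. Nonlinear least squares fitting of a Gompertz curve gave GI50, the molar concentration causing the set level of growth inhibition, which is reported as its negative logarithm. The logarithm is base 10.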

MDAMB157 = system: MDAMB157
Summary of the method: as §1

MDAMB175VII = system: MDAMB175VII
Summary of the method: as §1

HCC1954 = system: HCC1954
Summary of the method: as §1

HCC2185 = system: HCC2185
Summary of the method: as §1

MDAMB231 = system: MDAMB231
Summary of the method: as §1

MCF7 = system: MCF7
Summary of the method: as §1

HCC1428 = system: HCC1428
Summary of the method: as §1

T47D = system: T47D
Summary of the method: as §1

BT474 = system: BT474
Summary of the method: as §1

SUM1315MO2 = system: SUM1315MO2
Summary of the method: as §1

SUM159PT = system: SUM159PT
Summary of the method: as §1

HCC3153 = system: HCC3153
Summary of the method: as §1

BT483 = system: BT483
Summary of the method: as §1

SUM185PE = system: SUM185PE
Summary of the method: as §1

SUM225CWN = system: SUM225CWN
Summary of the method: as §1

MDAMB415 = system: MDAMB415
Summary of the method: as §1

LY2 = system: LY2
Summary of the method: as §1

600MPE = system: 600MPE
Summary of the method: as §1

HCC1937 = system: HCC1937
Summary of the method: as §1

Structure (SMILES) | -log10 GI50 (184A1) | -log10 GI50 (MDAMB157) | -log10 GI50 (MDAMB175VII) | -log10 GI50 (HCC1954) | -log10 GI50 (HCC2185) | -log10 GI50 (MDAMB231) | -log10 GI50 (MCF7) | -log10 GI50 (HCC1428) | -log10 GI50 (T47D) | -log10 GI50 (BT474) | -log10 GI50 (SUM1315MO2) | -log10 GI50 (SUM159PT) | -log10 GI50 (HCC3153) | -log10 GI50 (BT483) | -log10 GI50 (SUM185PE) | -log10 GI50 (SUM225CWN) | -log10 GI50 (MDAMB415) | -log10 GI50 (LY2) | -log10 GI50 (600MPE) | -log10 GI50 (HCC1937)
O=C1c2ccccc2-[n+]2ccc3c([nH]c4ccccc43)c21 [Fascaplysin] | 6.4 | 6.77 | 6.68 | 6.57 | 6.9 | 6.6 | 6.72 | 7.43 | 6.34 | 6.73 | 6.38 | 6.37 | 6.55 | 7.18 | 7.26 | 7.25 | 7.22 | 8.1 | 6.55 | 6.41
CC(C(C)N1CC(=O)NC(=O)C1)N1CC(=O)NC(=O)C1 (stereo not given) [ICRF-193] | < 4.3 | 5.16 | < 4.3 | 4.82 | 5.71 |  | < 4.48 | < 4.3 | < 4.48 | < 4.3 | 6.35 | 6.53 | < 4.48 | < 4.3 | < 4.3 | < 4.48 | 5.39 | 5.97 | < 4.3 | < 4.3
Cc1ccc(NC(=O)c2ccc(CN3CCN(C)CC3)cc2)cc1Nc1nccc(-c2cccnc2)n1 [Imatinib] | 4.86 | 4.76 | 5.01 | 5.04 | 4.82 | 4.82 | 4.82 | 4.8 | 4.79 | 4.52 | 4.63 | 4.75 | 4.52 | 3.82 | 4.91 | 4.9 | 4.64 | 4.65 | 4.62 | 4.69
C/C(=C\c1csc(C)n1)[C@@H]1C[C@@H]2O[C@]2(C)CCC[C@H](C)[C@H](O)[C@@H](C)C(=O)C(C)(C)[C@@H](O)CC(=O)N1 [Ixabepilone] | 6.67 | 8.33 | 7.03 | 8.71 | 8.32 | 9.34 | 9.44 | 7.23 | 8.26 | 8.42 | 8.22 | 8.16 | 8.21 | 5.27 | 8.07 | 5.96 | 8.41 | 8.22 | 8.53 | 6.76
CC(C)C[C@@H](C=O)NC(=O)[C@H](CC(C)C)NC(=O)[C@H](CC(C)C)NC(=O)OCc1ccccc1 [MG-132] | 7.73 | 6.76 | 6.66 |  | 6.66 | 6.59 | 6.47 | 6.46 | 6.97 | 6.75 | 6.92 | 7.27 | 6.84 | 6.81 | 7.01 | 7.01 | 7.08 | 6.49 | 6.3 | 6.82
NS(=O)(=O)OC[C@@H]1C[C@@H](n2ccc3c(N[C@H]4CCc5ccccc54)ncnc32)C[C@@H]1O [MLN4924] | 6.24 | 7.25 | 6.64 | 5.35 | 5.62 | 7.03 | 7.16 | 6.94 | 6.93 | 6.24 | 5.67 | 6.31 | 6.44 | 5.53 | 7.27 | 5.28 | 6.95 | 7 | 6.49 | 5.58
CN(Cc1cnc2nc(N)nc(N)c2n1)c1ccc(C(=O)N[C@@H](CCC(=O)O)C(=O)O)cc1 [Methotrexate] | 7.18 | 7.12 | < 3.48 | 8.07 | < 3.48 | < 3.48 | 7.34 | < 3.48 | < 3.48 | < 3.48 | < 3.48 | < 3.48 | < 3.48 | 3.63 | < 3.48 | < 3.48 | < 3.48 | 7.47 | 5.39 | < 3.48
COc1ccc(C2=N[C@@H](c3ccc(Cl)cc3)[C@@H](c3ccc(Cl)cc3)N2C(=O)N2CCNC(=O)C2)c(OC(C)C)c1 [Nutlin 3a] | 5.46 | 4.76 | 5.23 | 4.76 | 4.81 | < 4.18 | 5.25 | 4.5 | 4.51 | 4.8 | 4.75 | 4.78 | 4.56 | 5.19 | 4.54 | 4.69 | 4.46 | 5.29 | 4.81 | 4.65
CC[C@H](CO)Nc1nc(NCc2ccccc2O)c2ncn(C(C)C)c2n1 [Olomoucine II] | 5.5 | 5.23 | 5.14 | 4.95 | 5.11 | 5.17 | 5.23 | 5.29 | 5.18 | 5.2 | 5.47 | 5.32 | 5.51 | 5.24 | 5.98 | 5.28 | 5.32 | 5.46 | 5.23 | 5.2
CO[C@H]1C[C@@H]2CC[C@@H](C)[C@@](O)(O2)C(=O)C(=O)N2CCCC[C@H]2C(=O)O[C@H]([C@H](C)C[C@@H]2CC[C@@H](OC(=O)C(C)(CO)CO)[C@H](OC)C2)CC(=O)[C@H](C)/C=C(\C)[C@@H](O)[C@@H](OC)C(=O)[C@H](C)C[C@H](C)/C=C/C=C/C=C/1C [Temsirolimus] | 6.3 | 4.63 | 4.66 | 6.66 | 8.19 |  | 5.8 | 5.25 | 5.85 | 7.57 | 6.06 |  | 4.63 | 6.57 | < 3.88 | 5.6 | 8.36 | 6.85 | 4.74 | 6.36
O=C(CCCCCCC(=O)Nc1ccccc1)NO [Vorinostat] | 3.87 | 4.01 | 4.29 | 3.95 | 4.28 | 4.11 | 4.19 | 4.42 | 3.97 | 4.27 | 3.77 | 3.92 | 3.77 | 4.23 | 4.42 | 3.84 | 3.96 | 3.86 | 4.18 | 
